In patent publication US20230128194A1, “METHODS AND COMPOSITIONS TO ALTER HEPATIC GABA RELEASE TO TREAT OBESITY-RELATED CONDITIONS” (ARIZONA BOARD OF REGENTS ON BEHALF OF THE UNIVERSITY OF …, priority 2017, published 2023):

Biological target: T1, BGT1 (Mus musculus, UniProt P31651)
T1 construct: from tissue; host or cells: mouse liver slices
T1 sequence (P31651 1-614): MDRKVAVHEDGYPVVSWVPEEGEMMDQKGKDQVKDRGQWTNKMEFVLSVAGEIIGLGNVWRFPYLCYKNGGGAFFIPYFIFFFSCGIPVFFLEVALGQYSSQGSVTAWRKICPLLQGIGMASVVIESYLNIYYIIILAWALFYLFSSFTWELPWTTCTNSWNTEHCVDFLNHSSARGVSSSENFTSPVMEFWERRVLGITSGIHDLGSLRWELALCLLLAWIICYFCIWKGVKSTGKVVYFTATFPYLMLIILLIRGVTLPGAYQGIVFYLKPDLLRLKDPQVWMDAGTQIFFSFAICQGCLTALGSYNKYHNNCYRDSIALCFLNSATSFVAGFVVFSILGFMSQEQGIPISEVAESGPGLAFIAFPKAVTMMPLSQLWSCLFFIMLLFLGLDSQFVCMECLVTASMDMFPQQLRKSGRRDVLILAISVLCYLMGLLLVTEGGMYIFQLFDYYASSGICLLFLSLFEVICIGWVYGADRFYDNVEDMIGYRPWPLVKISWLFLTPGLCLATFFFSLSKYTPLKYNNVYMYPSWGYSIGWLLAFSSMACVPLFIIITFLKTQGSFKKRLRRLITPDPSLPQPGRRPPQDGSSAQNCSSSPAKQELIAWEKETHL
Assay: liver slice media GABA with BGT1 inhibitor
Assay type: cell-based
Conditions: liver slices, 1 mM
From the text: Two liver slices were taken from each mouse.

Structure (SMILES): C[N+](C)(C)CC(=O)O [betaine]
- media GABA concentrations: increases
